Experiment [1] has as its target Human Constitutive (Hu C-20S) β5 Active Subunit (Homo sapiens, UniProt P28074). Put plainly: IC50 determination, human constitutive 20S proteasome β5c (suc-LLVY-AMC hydrolysis). It is filed as biochemical. The conditions noted are these: Table 2; several values in a cell are repeat determinations; read-out: Hu c-20S IC50.
The target of another experiment is Mtb20SOG (Mycobacterium tuberculosis, UniProt P9WHT9). The experiment in a line: biochemical.
Where [2] appears, read: Table 2, several values in a cell are repeat determinations.

These results are taken from US11203613B2, “Peptidomimetic proteasome inhibitors” (CORNELL UNIVERSITY, priority 2017, dated 2021).

Usually pIC50 stands for the IC50 on a negative log10 scale, so that one unit is a factor of ten.

pIC50: −log10 of the molar value. “And” between values parts separate entries of the source, which are not always exact repeats. Identical values can stand only once. Like-named read-outs stand apart in the source and are kept apart here.

Chain of Mtb20SOG (P9WHT9 58-291): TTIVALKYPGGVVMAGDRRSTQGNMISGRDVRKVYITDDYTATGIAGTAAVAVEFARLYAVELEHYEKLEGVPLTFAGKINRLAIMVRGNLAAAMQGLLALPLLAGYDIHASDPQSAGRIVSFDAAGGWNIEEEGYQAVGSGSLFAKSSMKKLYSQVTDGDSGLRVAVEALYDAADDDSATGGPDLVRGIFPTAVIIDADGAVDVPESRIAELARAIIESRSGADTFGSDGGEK

In the case of `CC(NC(=O)C(CC(=O)N1CCCCC1C)NC(=O)OCc1ccccc1)c1nc2c(F)cccc2[nH]1` (centres unmarked) [CF-503462], the pIC50 in experiment [1] was 4.83; against Mtb20SOG, 6.92.
As to `CC(C)COC(=O)NC(CC(=O)N1CCCCC1C)C(=O)NC(C)c1nc2c(F)cccc2[nH]1` (centres unmarked) [CF-503463], the pIC50 in experiment [1] was 5.60; against Mtb20SOG, 5.94.
For the compound `CC[C@H]1CCCCN1C(=O)C[C@H](NC(=O)C1CC(C)(C)C1)C(=O)N[C@@H](C)c1nc2c(F)cccc2[nH]1` [CF-503464], the pIC50 is 5.90 in experiment [1]; 8.00 and 7.72 against Mtb20SOG.
With `CC(NC(=O)C(CC(=O)N1CCCCC1C)NC(=O)C1CC(C)(C)C1)c1nc(-c2ccc(F)cc2F)c[nH]1` (centres unmarked) [CF-503474], the negative-log IC50 (pIC50) in experiment [1] was 5.25; on Mtb20SOG it was 7.85.
For `CC(NC(=O)C(CC(=O)N1CCCCC1C)NC(=O)C1CC1C(C)C)c1nc(-c2ccc(F)cc2F)c[nH]1` (centres unmarked) [CF-503475], in that order: 5.32 and 7.47.
Regarding `CC(C)c1noc(N[C@@H](CC(=O)N2CCCC[C@@H]2C)C(=O)N[C@@H](C)c2ncc(-c3ccc(F)cc3F)[nH]2)n1` [CF-503477], the values for the pIC50 (in experiment [1]; against Mtb20SOG (setting [2])) were 5.64 and 5.69, respectively.
As to `Cc1cc(C(=O)N[C@@H](CC(=O)N2CCCC[C@@H]2C)C(=O)NC(C)c2nc3ccccc3[nH]2)no1` (some centres unmarked) [drawing 395], the pIC50 in experiment [1] is 4.15; at Mtb20SOG (setting [2]) it was 6.26 and 6.48.
